Results published in PubChem BioAssay (NCI).
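96-well plates; 48 h exposure; 5 concentrations. Endpoints by linear interpolation between flanking doses. Not reached: highest tested concentration assigned. Here, GI50 denotes the concentration required for 50% inhibition of growth. At the TGI there is no net growth.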

How the values were obtained:
Experiment in all cases: growth of human tumour cells (NCI), 48 h
[1] = system: KM12 colon
[2] = system: HCC-2998 colon
[3] = system: SR leukemia
[4] = system: EKVX NSCLC
[5] = system: SNB-19 CNS
[6] = system: SF-268 CNS
[7] = system: U251 CNS
[8] = system: 786-0 renal
[9] = system: SK-MEL-2 melanoma
[10] = system: UACC-257 melanoma

With `CC1CN1CC(O)C(O)CN1CC1C` (stereo not drawn) the GI50 [1] was 7.37 µM, the TGI [1] was 23 µM and the GI50 [2] was 6.21 µM. The TGI [2] was 23.4 µM, the GI50 [3] was 0.053 µM and the TGI [3] was > 100 µM. For the same molecule, the GI50 [4] was 13.8 µM, the TGI [4] was > 80.6 µM and the GI50 [5] was 6.21 µM. The TGI [5] was > 100 µM, the GI50 [6] was 0.716 µM and the TGI [6] was > 53.5 µM. The GI50 [7] was 1.36 µM, the TGI [7] was > 64.8 µM and the GI50 [8] was 0.831 µM. For the same molecule, the TGI [8] was > 41.2 µM, the GI50 [9] was 8.58 µM and the TGI [9] was > 64.2 µM. It also gave a GI50 [10] of 3.12 µM and a TGI [10] of 23.3 µM.
In the case of `O=C(N/N=C/c1cccc(O)c1O)c1ccccc1`, the GI50 [1] is reported as 0.769 µM, the TGI [1] is reported as > 100 µM and the GI50 [2] is reported as 3.2 µM. For the same molecule, the TGI [2] was > 100 µM, the GI50 [3] was 0.412 µM and the TGI [3] was > 76 µM. For the same molecule, the GI50 [5] was 1.46 µM, the TGI [5] was > 100 µM and the GI50 [6] was 0.567 µM. For the same molecule, the TGI [6] was > 100 µM, the GI50 [7] was 0.569 µM and the TGI [7] was > 100 µM. The GI50 [8] was 1.48 µM, the TGI [8] was > 100 µM and the GI50 [9] was 11.7 µM. The TGI [9] was > 100 µM, the GI50 [10] was 0.895 µM and the TGI [10] was 7.05 µM.
With `CC(=O)OC1CC(O)C23COC(O)C1(C)C2CC(O)C1(C)C3C(=O)C(O)C2(C)C(c3ccoc3)CC3OC321` (stereo not drawn) the GI50 [1] was < 0.01 µM, the TGI [1] was > 100 µM and the GI50 [2] was 0.42 µM. For the same molecule, the TGI [2] was > 100 µM, the GI50 [3] was < 0.01 µM and the TGI [3] was 0.0544 µM. The GI50 [4] was 1.94 µM, the TGI [4] was > 100 µM and the GI50 [5] was > 100 µM. For the same molecule, the TGI [5] was > 100 µM, the GI50 [6] was 2.2 µM and the TGI [6] was > 100 µM. The GI50 [7] was 0.379 µM, the TGI [7] was > 100 µM and the GI50 [8] was 0.0897 µM. The TGI [8] was > 64.2 µM, the TGI [9] was > 100 µM and the GI50 [10] was 0.16 µM. It also gave a TGI [10] of 5.51 µM.
For `Cc1ccccc1N(CCC#N)C1=NN(C(=O)CC(=O)Nc2ccccc2)C(c2ccccc2)C1` (stereo not drawn), the TGI [1] was > 100 µM, the TGI [2] was > 100 µM and the TGI [3] was > 100 µM. The TGI [4] was > 100 µM, the TGI [5] was > 100 µM and the TGI [6] was > 100 µM. The TGI [7] was > 100 µM, the TGI [8] was > 100 µM and the TGI [9] was > 100 µM. For the same molecule, the TGI [10] was > 100 µM.
In the case of `COc1cc(OC(=O)c2c(O)cc(O)c(O)c2C)cc(C)c1C(=O)Oc1cc(C)c(C(=O)O)c(O)c1`, the TGI [1] is reported as > 100 µM, the TGI [2] is reported as > 100 µM and the TGI [3] is reported as > 100 µM. For the same molecule, the TGI [4] was > 100 µM, the TGI [6] was > 100 µM and the TGI [7] was > 100 µM. The TGI [8] was > 100 µM, the TGI [9] was > 100 µM and the TGI [10] was > 100 µM.
In the case of `CCCCN=C(N)c1ccc(OCCSCCOc2ccc(C(N)=NCCCC)cc2)cc1`, the GI50 [1] is reported as 3.62 µM, the TGI [1] is reported as 19.9 µM and the GI50 [2] is reported as 5.87 µM. For the same molecule, the TGI [2] was > 100 µM, the GI50 [3] was 3.13 µM and the TGI [3] was 53.7 µM. The GI50 [4] was 0.96 µM, the TGI [4] was > 100 µM and the GI50 [6] was 5.32 µM. The TGI [6] was > 100 µM, the GI50 [7] was 1.6 µM and the TGI [7] was > 100 µM. For the same molecule, the GI50 [8] was > 100 µM, the TGI [8] was > 100 µM and the GI50 [9] was 5.36 µM. For the same molecule, the TGI [9] was 21.9 µM, the GI50 [10] was 4.4 µM and the TGI [10] was 71.8 µM.
Work on `Nc1ncc(-c2cnn(CCO)c2)c2scc(-c3ccc(NC(=O)Nc4cccc(F)c4)cc3)c12` yielded a GI50 [1] of 0.0103 µM, a TGI [1] of 1.19 µM and a GI50 [2] of 1.39 µM. For the same molecule, the TGI [2] was 6.79 µM, the GI50 [3] was < 0.01 µM and the TGI [3] was 1.26 µM. For the same molecule, the GI50 [5] was 1.04 µM, the TGI [5] was 9.16 µM and the GI50 [6] was 0.435 µM. For the same molecule, the TGI [6] was 9.73 µM, the GI50 [7] was 0.301 µM and the TGI [7] was 1.72 µM. It also gave a GI50 [8] of 0.45 µM, a TGI [8] of 6.69 µM and a GI50 [9] of 0.364 µM. For the same molecule, the TGI [9] was 1.66 µM, the GI50 [10] was 0.287 µM and the TGI [10] was 1.89 µM.
For `Nc1ccc(/C=C/c2ccnc3ccccc23)cc1`, the TGI [1] was 49.3 µM, the TGI [2] was 57.7 µM and the TGI [3] was 32.4 µM. The TGI [5] was 79.3 µM, the TGI [6] was 47.5 µM and the TGI [7] was 59.4 µM. The TGI [8] was 57.6 µM, the TGI [9] was 37.6 µM and the TGI [10] was 57.8 µM.
`COC(=O)C(=O)C(C(=O)C(=O)Nc1ccccc1C(N)=O)c1nc2ccc(Cl)cc2[nH]c1=O` (stereo not drawn) was tested, and the TGI [1] was > 100 µM, the TGI [2] was > 100 µM and the TGI [3] was > 100 µM. For the same molecule, the TGI [5] was > 100 µM, the TGI [6] was > 100 µM and the TGI [7] was > 100 µM. For the same molecule, the TGI [8] was > 100 µM, the TGI [9] was > 100 µM and the TGI [10] was > 100 µM.
With `COC(=O)c1cc(Br)c(Br)n1C` the TGI [1] was > 100 µM, the TGI [2] was > 100 µM and the TGI [3] was > 100 µM. For the same molecule, the TGI [4] was > 100 µM, the TGI [5] was > 100 µM and the TGI [6] was > 100 µM. The TGI [7] was > 100 µM, the TGI [8] was > 100 µM and the TGI [10] was > 100 µM.
For `COc1cc2oc(-c3ccc(O)cc3)cc(=O)c2c(OC)c1OC`, the TGI [1] was > 100 µM, the TGI [2] was > 100 µM and the TGI [3] was > 100 µM. For the same molecule, the TGI [4] was > 100 µM, the TGI [5] was > 100 µM and the TGI [6] was > 100 µM. For the same molecule, the TGI [7] was > 100 µM, the TGI [8] was > 100 µM and the TGI [10] was > 100 µM.
With `NC(CC(=O)OCc1ccccc1)C(=O)OCc1ccccc1` (stereo not drawn) the TGI [1] was > 100 µM, the TGI [2] was 89.1 µM and the TGI [3] was > 100 µM. For the same molecule, the TGI [4] was > 100 µM, the TGI [5] was > 100 µM and the TGI [6] was > 100 µM. The TGI [8] was > 100 µM, the TGI [9] was > 100 µM and the TGI [10] was > 100 µM.
`COc1cc(C2=NN(C(C)=O)C(c3ccc(OC(C)=O)cc3OC(C)=O)O2)c(OC(C)=O)c2ccccc12` (stereo not drawn) gave a GI50 [1] of 1.02 µM, a TGI [1] of 27.3 µM and a GI50 [2] of 1.03 µM. For the same molecule, the TGI [2] was 27.9 µM, the GI50 [3] was 0.537 µM and the TGI [3] was > 27.4 µM. For the same molecule, the GI50 [5] was 1.19 µM, the TGI [5] was > 75.3 µM and the GI50 [6] was 0.465 µM. The TGI [6] was > 24.4 µM, the GI50 [7] was 0.472 µM and the TGI [7] was 14.8 µM. It also gave a GI50 [8] of 0.902 µM, a TGI [8] of 12.7 µM and a GI50 [9] of 10.8 µM. For the same molecule, the TGI [9] was 49.4 µM, the GI50 [10] was 0.981 µM and the TGI [10] was 6.86 µM.
Work on `Cc1ccc(/C(=C/C=C(C#N)C#N)Sc2ccc(Cl)cc2)cc1` yielded a GI50 [1] of 5.5 µM, a TGI [1] of 26.7 µM and a GI50 [2] of 18 µM. The TGI [2] was 31.9 µM, the GI50 [3] was 2.32 µM and the TGI [3] was 6.14 µM. It also gave a GI50 [4] of 22.3 µM, a TGI [4] of 49.4 µM and a GI50 [5] of 11 µM. For the same molecule, the TGI [5] was 25.3 µM, the GI50 [6] was 9.8 µM and the TGI [6] was 35.7 µM. For the same molecule, the GI50 [7] was 3.65 µM, the TGI [7] was 14.8 µM and the GI50 [8] was 1.9 µM. The TGI [8] was 4.57 µM, the GI50 [10] was 9.04 µM and the TGI [10] was 22 µM.
